Laboratory results published in US11846631B2, “Methods for determining drug effects on a mature cardiomyocyte” (ORGANOS, INC., priority 2018, dated 2023).

What was measured:
[1] = target: ICaL (Homo sapiens, UniProt Q13936); conditions: from the literature; cited from earlier work
[2] = target: IKr (Homo sapiens, UniProt Q12809); conditions: from the literature; cited from earlier work
[3] = test system: the other currents; assay: Inversion of voltage and calcium traces measured in hiPSC-CMs in a cardiac MPS (channel block identification); assay type: cell-based, human; conditions: cisapride 10 nM; measured MPS data of hiPSC-CMs (FIG. 5)
Excerpt: [formula] […] The Minimization Procedure

Chain of IKr (Q12809 whole entry): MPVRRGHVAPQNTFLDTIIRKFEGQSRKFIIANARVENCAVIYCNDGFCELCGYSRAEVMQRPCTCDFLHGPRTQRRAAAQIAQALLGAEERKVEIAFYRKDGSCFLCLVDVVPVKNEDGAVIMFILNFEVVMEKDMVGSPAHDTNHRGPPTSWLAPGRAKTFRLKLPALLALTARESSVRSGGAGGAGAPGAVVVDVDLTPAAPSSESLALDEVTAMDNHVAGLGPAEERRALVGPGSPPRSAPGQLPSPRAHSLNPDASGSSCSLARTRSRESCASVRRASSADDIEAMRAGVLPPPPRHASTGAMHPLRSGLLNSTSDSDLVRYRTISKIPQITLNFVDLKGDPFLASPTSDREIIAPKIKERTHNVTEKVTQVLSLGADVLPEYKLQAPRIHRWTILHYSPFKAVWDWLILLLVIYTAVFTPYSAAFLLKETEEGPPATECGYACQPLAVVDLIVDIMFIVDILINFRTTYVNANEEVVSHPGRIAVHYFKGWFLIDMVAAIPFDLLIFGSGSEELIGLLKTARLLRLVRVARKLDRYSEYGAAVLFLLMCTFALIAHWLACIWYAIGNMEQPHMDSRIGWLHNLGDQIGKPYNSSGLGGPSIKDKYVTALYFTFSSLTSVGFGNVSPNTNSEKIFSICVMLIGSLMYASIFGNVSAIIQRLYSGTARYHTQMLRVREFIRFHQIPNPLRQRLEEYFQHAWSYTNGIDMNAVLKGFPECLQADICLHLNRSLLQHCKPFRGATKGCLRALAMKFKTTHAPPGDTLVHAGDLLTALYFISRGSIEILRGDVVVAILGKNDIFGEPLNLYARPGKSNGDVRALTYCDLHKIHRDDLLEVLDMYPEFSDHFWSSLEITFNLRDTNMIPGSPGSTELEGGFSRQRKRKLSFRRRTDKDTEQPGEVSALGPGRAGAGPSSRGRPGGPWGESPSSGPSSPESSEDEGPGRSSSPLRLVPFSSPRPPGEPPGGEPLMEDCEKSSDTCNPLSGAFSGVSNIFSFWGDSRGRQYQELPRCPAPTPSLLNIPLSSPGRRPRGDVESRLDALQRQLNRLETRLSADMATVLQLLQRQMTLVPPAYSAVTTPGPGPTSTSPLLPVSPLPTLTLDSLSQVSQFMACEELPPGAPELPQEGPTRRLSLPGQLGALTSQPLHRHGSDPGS
Chain of ICaL (Q13936 whole entry): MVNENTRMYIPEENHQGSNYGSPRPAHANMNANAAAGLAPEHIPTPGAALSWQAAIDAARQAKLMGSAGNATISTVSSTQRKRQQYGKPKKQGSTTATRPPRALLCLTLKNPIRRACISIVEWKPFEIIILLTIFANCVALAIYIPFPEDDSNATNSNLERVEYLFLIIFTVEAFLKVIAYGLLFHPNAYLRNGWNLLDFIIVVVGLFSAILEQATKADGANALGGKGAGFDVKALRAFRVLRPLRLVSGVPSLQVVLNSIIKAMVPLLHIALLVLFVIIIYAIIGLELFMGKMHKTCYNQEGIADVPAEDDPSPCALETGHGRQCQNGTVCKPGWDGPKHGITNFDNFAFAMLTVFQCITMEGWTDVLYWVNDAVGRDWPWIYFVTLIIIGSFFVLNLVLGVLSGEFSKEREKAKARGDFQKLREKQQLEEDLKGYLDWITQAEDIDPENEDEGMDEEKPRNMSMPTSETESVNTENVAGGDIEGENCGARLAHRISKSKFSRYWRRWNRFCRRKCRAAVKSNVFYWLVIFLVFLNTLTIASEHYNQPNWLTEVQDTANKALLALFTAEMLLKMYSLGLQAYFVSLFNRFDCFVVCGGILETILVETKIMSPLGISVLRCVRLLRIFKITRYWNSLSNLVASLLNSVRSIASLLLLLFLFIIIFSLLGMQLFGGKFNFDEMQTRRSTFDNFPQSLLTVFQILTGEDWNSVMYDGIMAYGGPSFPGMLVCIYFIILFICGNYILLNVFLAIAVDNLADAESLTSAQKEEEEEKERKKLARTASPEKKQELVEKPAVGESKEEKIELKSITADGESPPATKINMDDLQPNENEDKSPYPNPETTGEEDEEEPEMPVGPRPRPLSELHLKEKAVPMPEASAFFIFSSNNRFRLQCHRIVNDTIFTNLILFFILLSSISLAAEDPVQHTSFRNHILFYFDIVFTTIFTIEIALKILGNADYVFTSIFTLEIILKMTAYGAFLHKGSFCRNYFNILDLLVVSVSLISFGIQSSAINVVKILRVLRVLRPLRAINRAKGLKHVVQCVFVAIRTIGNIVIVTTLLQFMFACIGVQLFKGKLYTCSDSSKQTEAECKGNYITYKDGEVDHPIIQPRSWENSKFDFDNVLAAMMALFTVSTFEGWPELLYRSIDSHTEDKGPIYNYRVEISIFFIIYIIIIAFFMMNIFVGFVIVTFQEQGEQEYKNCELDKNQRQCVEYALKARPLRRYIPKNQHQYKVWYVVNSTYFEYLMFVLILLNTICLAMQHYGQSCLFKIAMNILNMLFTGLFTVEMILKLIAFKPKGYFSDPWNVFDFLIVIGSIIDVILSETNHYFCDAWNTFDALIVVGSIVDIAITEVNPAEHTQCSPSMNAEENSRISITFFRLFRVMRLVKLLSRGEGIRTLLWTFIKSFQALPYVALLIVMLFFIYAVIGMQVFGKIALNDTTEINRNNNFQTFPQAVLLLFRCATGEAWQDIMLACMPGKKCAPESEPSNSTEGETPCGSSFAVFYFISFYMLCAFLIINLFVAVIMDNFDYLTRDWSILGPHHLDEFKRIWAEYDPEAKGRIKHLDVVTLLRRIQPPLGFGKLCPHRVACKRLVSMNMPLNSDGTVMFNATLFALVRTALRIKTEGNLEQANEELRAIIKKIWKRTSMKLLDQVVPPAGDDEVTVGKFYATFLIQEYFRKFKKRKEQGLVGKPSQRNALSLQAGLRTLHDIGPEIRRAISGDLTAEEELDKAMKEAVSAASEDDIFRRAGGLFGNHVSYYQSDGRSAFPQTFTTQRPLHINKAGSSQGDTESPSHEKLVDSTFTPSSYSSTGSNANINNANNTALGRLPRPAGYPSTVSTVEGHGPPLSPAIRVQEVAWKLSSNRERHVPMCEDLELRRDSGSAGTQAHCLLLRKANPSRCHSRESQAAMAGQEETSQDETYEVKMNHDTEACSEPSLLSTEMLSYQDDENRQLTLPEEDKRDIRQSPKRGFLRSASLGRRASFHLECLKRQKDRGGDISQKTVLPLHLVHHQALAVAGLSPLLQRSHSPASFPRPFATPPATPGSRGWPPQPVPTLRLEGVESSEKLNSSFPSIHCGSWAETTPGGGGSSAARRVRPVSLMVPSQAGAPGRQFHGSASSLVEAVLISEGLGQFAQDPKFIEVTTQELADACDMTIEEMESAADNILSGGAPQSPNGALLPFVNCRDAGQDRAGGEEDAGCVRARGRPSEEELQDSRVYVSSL
Chain of ICaL (Q08289 whole entry partner): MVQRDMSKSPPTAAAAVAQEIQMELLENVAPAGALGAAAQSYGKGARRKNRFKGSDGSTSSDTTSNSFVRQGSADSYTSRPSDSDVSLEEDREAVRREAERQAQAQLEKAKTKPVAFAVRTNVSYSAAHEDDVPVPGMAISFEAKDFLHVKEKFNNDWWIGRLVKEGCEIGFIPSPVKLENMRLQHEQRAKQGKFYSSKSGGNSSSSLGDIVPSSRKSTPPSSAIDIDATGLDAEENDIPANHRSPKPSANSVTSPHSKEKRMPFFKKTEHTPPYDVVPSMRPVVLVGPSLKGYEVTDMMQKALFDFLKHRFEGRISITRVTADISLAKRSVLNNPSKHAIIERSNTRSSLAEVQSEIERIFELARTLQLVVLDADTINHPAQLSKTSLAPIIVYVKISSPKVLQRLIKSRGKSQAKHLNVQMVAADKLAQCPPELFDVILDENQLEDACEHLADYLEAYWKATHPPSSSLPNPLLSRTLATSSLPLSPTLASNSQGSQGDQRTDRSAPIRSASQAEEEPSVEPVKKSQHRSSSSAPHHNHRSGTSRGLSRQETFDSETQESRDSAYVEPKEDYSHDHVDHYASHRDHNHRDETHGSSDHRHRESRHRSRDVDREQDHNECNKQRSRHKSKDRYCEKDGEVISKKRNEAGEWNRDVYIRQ
Chain of ICaL (P54289 25-946 partner limits assumed): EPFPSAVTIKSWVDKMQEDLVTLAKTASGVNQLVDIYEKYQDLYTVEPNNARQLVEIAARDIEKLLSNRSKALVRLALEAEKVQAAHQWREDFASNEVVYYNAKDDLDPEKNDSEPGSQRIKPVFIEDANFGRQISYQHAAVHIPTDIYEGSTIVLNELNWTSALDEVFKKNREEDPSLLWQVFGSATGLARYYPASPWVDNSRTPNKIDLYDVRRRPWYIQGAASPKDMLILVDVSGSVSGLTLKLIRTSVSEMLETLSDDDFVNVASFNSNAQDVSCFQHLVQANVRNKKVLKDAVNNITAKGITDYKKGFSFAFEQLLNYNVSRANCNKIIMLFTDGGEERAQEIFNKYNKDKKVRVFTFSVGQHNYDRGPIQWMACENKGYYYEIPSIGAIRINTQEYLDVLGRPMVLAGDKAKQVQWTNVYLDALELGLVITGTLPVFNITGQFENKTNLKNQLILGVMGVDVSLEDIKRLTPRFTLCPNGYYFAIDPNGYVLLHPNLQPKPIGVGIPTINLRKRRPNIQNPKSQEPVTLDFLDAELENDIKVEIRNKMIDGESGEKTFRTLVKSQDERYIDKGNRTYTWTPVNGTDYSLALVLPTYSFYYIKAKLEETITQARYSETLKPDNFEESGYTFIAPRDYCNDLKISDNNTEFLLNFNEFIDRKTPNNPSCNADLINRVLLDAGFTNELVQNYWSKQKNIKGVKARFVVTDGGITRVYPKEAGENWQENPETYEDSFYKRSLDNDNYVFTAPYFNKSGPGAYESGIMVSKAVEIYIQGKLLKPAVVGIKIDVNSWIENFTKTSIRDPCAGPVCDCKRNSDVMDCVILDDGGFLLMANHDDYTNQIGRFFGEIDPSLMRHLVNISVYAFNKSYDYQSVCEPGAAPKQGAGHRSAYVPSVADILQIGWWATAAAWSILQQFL
Chain of ICaL (P54289 947-1103 partner limits assumed): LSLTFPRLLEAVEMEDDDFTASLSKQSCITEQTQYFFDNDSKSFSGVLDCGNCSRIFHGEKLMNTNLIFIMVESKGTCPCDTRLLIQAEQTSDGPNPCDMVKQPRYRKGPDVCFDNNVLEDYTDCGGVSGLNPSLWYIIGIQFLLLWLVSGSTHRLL

Row | SMILES | Known effect on ICaL [1] | Known effect on IKr [2] | Effect on the other currents, full inversion procedure [3]
1 | COc1ccc(CCN(C)CCCC(C#N)(c2ccc(OC)c(OC)c2)C(C)C)cc1OC (stereo not drawn) [verapamil] | blocks |  | 
2 | COc1cc(N)c(Cl)cc1C(=O)NC1CCN(CCCOc2ccc(F)cc2)CC1OC (stereo not drawn) [cisapride] |  | blocks | nearly unaffected
